Measured values reported in patent US11214594B2, “Antimicrobial peptide having synergistic antibacterial effect with antibiotics on multidrug resistant bacteria, and use thereof” (priority 2016, dated 2022).
Converted amounts (≈) assume the structure as drawn. Where a SMILES comes first, the peptide text is derived from it.

Tests used:
[1] = test system: P. aeruginosa; assay: microbe, parasite or virus in culture; assay type: cell-based, Pseudomonas aeruginosa
Summary of the method: (§1)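 Broth microdilution in MH medium: strains diluted to 2×10^6 CFU were mixed with equal volumes of twofold serial peptide dilutions in MH medium. MIC was taken as the lowest peptide concentration preventing bacterial growth.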

[2] = test system: A. baumannii; assay: microbe, parasite or virus in culture; assay type: cell-based, Acinetobacter baumannii
Summary of the method: as §1

[3] = test system: MDRAB 12035; assay: microbe, parasite or virus in culture; assay type: cell-based, Acinetobacter baumannii
Summary of the method: as §1

[4] = test system: MDRST 8007; assay: Minimal inhibitory concentration (MIC), single agent; assay type: cell-based, Salmonella typhimurium; conditions: agent alone
Summary of the method: as §1

[5] = test system: S. epidermidis; assay: microbe, parasite or virus in culture; assay type: cell-based, Staphylococcus epidermidis
Summary of the method: as §1

[6] = test system: E. coli; assay: MIC of antibiotic during combined treatment with antimicrobial peptide; assay type: cell-based, Escherichia coli; conditions: for Antibiotic MIC, Erythromycin / Antibiotic MIC, Linezolid / Antibiotic MIC, Vancomycin: E. coli
Summary of the method: (§2)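 Using MH broth, we determined combination MICs by titrating the antibiotic into wells and then repeating under the reverse dilution scheme.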

[7] = test system: A. baumannii; assay: as above; assay type: cell-based, Acinetobacter baumannii; conditions: for Antibiotic MIC, Erythromycin / Antibiotic MIC, Linezolid / Antibiotic MIC, Vancomycin: A. baumannii
Summary of the method: as §2

[8] = combined with peptide at 1 μg/ml
[9] = combined with peptide at 2 μg/ml
[10] = combined with peptide at 4 μg/ml
[11] = combined with peptide at 6 μg/ml
[12] = combined with peptide at 8 μg/ml
[13] = combined with peptide at 16 μg/ml
[14] = combined with peptide at 32 μg/ml

CC[C@H](C)[C@H](NC(=O)[C@H](CCCCN)NC(=O)[C@H](Cc1c[nH]c2ccccc12)NC(=O)[C@@H](N)CCCNC(=N)N)C(=O)N[C@@H](Cc1ccccc1)C(=O)N[C@@H](CCCCN)C(=O)N[C@@H](CCCCN)C(=O)N[C@H](C(=O)N1CCC[C@H]1C(=O)N[C@@H](CCCCN)C(=O)N[C@@H](Cc1ccccc1)C(=O)N[C@@H](CC(C)C)C(=O)N[C@@H](Cc1c[nH]cn1)C(=O)N[C@@H](CO)C(=O)N[C@@H](Cc1ccccc1)C(=O)N[C@@H](CCCCN)C(=O)N[C@@H](CCCCN)C(=O)N[C@@H](Cc1ccccc1)C(N)=O)[C@@H](C)CC [PapMA-5, RWK IFK KIP KFL HSF KKF-NH2] (H-RWKIFKKIPKFLHSFKKF-NH2; N-terminus assumed)
Minimal inhibitory concentration MIC [1]: 16 µg/mL (≈ 6.73 µM)
Minimal inhibitory concentration MIC [2]: 64 µg/mL (≈ 26.9 µM)
Peptide MIC, peptide alone [2]: 64 µg/mL
Minimal inhibitory concentration MIC [3]: 64 µg/mL (≈ 26.9 µM)
Peptide MIC, peptide alone [3]: 64 µg/mL
Minimal inhibitory concentration MIC [4]: 64 µg/mL (≈ 26.9 µM)
Minimal inhibitory concentration MIC [5]: >128 µg/mL
Synergistic effect of antibacterial activity with existing antibiotics compared with PapMA-1 ([6]; E. coli and MDREC1229): level similar to that of the PapMA-1 peptide
Antibiotic MIC, Erythromycin ([6]; erythromycin combined with peptide at 1 μg/ml): 128 µg/mL
Antibiotic MIC, Erythromycin ([6]; erythromycin combined with peptide at 2 μg/ml): 64 µg/mL
Antibiotic MIC, Erythromycin ([6]; erythromycin combined with peptide at 4 μg/ml): 32 µg/mL
Antibiotic MIC, Erythromycin ([6]; erythromycin combined with peptide at 6 μg/ml): 8 µg/mL
Antibiotic MIC, Erythromycin ([6]; erythromycin combined with peptide at 8 μg/ml): 2 µg/mL
Antibiotic MIC, Erythromycin ([6]; erythromycin combined with peptide at 16 μg/ml): 0.5 µg/mL
Antibiotic MIC, Erythromycin ([6]; erythromycin combined with peptide at 32 μg/ml): 0.5 µg/mL
Antibiotic MIC, Erythromycin ([6]; erythromycin combined with peptide at 64 μg/ml): 0 µg/mL
Antibiotic MIC, Linezolid ([6]; linezolid combined with peptide at 1 μg/ml): >128 µg/mL
Antibiotic MIC, Linezolid ([6]; linezolid combined with peptide at 2 μg/ml): 128 µg/mL
Antibiotic MIC, Linezolid ([6]; linezolid combined with peptide at 4 μg/ml): 64 µg/mL
Antibiotic MIC, Linezolid ([6]; linezolid combined with peptide at 6 μg/ml): 32 µg/mL
Antibiotic MIC, Linezolid ([6]; linezolid combined with peptide at 8 μg/ml): 16 µg/mL
Antibiotic MIC, Linezolid ([6]; linezolid combined with peptide at 16 μg/ml): 8 µg/mL
Antibiotic MIC, Linezolid ([6]; linezolid combined with peptide at 32 μg/ml): 2 µg/mL
Antibiotic MIC, Linezolid ([6]; linezolid combined with peptide at 64 μg/ml): 0 µg/mL
Antibiotic MIC, Vancomycin ([6]; vancomycin combined with peptide at 1 μg/ml): >128 µg/mL
Antibiotic MIC, Vancomycin ([6]; vancomycin combined with peptide at 2 μg/ml): >128 µg/mL
Antibiotic MIC, Vancomycin ([6]; vancomycin combined with peptide at 4 μg/ml): 128 µg/mL
Antibiotic MIC, Vancomycin ([6]; vancomycin combined with peptide at 6 μg/ml): 64 µg/mL
Antibiotic MIC, Vancomycin ([6]; vancomycin combined with peptide at 8 μg/ml): 32 µg/mL
Antibiotic MIC, Vancomycin ([6]; vancomycin combined with peptide at 16 μg/ml): 8 µg/mL
Antibiotic MIC, Vancomycin ([6]; vancomycin combined with peptide at 32 μg/ml): 2 µg/mL
Antibiotic MIC, Vancomycin ([6]; vancomycin combined with peptide at 64 μg/ml): 0 µg/mL
Synergistic effect of antibacterial activity with existing antibiotics compared with PapMA-1 ([7]; A. baumannii and MDRAB 12035): level similar to that of PapMA-1 peptide
Antibiotic MIC, Erythromycin [7, 8]: 32 µg/mL
Antibiotic MIC, Linezolid [7, 8]: 128 µg/mL
Antibiotic MIC, Vancomycin [7, 8]: >128 µg/mL
Antibiotic MIC, Erythromycin [7, 9]: 16 µg/mL
Antibiotic MIC, Linezolid [7, 9]: 64 µg/mL
Antibiotic MIC, Vancomycin [7, 9]: >128 µg/mL
Antibiotic MIC, Erythromycin [7, 10]: 8 µg/mL
Antibiotic MIC, Linezolid [7, 10]: 16 µg/mL
Antibiotic MIC, Vancomycin [7, 10]: 32 µg/mL
Antibiotic MIC, Erythromycin [7, 11]: 4 µg/mL
Antibiotic MIC, Linezolid [7, 11]: 8 µg/mL
Antibiotic MIC, Vancomycin [7, 11]: 16 µg/mL
Antibiotic MIC, Erythromycin [7, 12]: 0.5 µg/mL
Antibiotic MIC, Linezolid [7, 12]: 4 µg/mL
Antibiotic MIC, Vancomycin [7, 12]: 8 µg/mL
Antibiotic MIC, Erythromycin [7, 13]: 0.25 µg/mL
Antibiotic MIC, Linezolid [7, 13]: 4 µg/mL
Antibiotic MIC, Vancomycin [7, 13]: 4 µg/mL
Antibiotic MIC, Erythromycin [7, 14]: 0.125 µg/mL
Antibiotic MIC, Linezolid [7, 14]: 2 µg/mL
Antibiotic MIC, Vancomycin [7, 14]: 2 µg/mL
Antibiotic MIC, Erythromycin ([7]; combined with peptide at 64 μg/ml): 0 µg/mL
